The values below come from patent US5831055A, “DNA encoding a novel kidney ATP-dependent potassium channels” (Pharmacia & Upjohn Company, priority 1996, dated 1998).

The target in one assay is T1, KIRK 2 channel (Homo sapiens, UniProt P78508).
T1 construct: primers that flank the open-reading frame of KIRK-2 were used to PCR amplify this region of the genomic clone; expressed in transfected cells; host or cells: Xenopus laevis oocytes injected with polyadenylated KIRK 2 cRNA (from pSPORT/KIRK-2)
T1 sequence (P78508 1-379): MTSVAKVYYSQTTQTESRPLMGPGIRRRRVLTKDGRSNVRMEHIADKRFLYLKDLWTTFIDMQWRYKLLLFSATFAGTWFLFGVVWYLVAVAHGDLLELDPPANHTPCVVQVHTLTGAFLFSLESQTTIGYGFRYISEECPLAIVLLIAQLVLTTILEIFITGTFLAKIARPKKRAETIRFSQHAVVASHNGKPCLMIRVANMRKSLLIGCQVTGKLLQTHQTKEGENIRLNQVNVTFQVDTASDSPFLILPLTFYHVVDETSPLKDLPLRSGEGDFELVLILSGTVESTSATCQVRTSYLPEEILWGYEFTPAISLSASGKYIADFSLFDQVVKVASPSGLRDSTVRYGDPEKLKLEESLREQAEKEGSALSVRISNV
Kind of assay: Two-microelectrode voltage-clamp of Xenopus oocytes injected with KIRK 2 cRNA. The format is cell-based. As to conditions: for inhibition of KIRK 2 current: Xenopus oocytes expressing KIRK 2, Ba^2+ applied at 0.03 μM to 10 mM (n=8), Cs^+ n=6, data not shown. The method, then:
Oocytes were collected under tricaine (3-aminobenzoic acid ethyl ester, 0.17%; Sigma, St. Louis, Mo.) and cold-induced anesthesia from adult African clawed frogs, Xenopus laevis (Nasco, Ft. Atkinson, Wis.), and defolliculated by blunt dissection in Ca^2+ free ND-96 following 40 minutes incubation in 2 mg/ml collagenase (Type II; Sigma, St. Louis, Mo.). ND-96 consisted of 96 mM NaCl, 2 mM KCl, 1 mM MgCl2, 0.3 mM CaCl2, 5 mM HEPES, pH 7.6.The following day, a glass injection pipette manually broken to ~15 μm tip diameter was used to inject oocytes with […] of polyadenylated cRNA dissolved in water at 15, 30 or 100 ng/μl resulting in injection of 0.6, 1.2, or 4 ng of cRNA. Prior to recordings, oocytes were maintained 2-7 days at 20° C. in ND-96 supplemented with gentamycin ([…]; Bio-Whittaker, Walkersville, Md.) and sodium-pyruvate (2.5 mM; Sigma).
Electrophysiological recordings were conducted at room temperature. Oocyte resting membrane potential was measured in ND-96 using 30-80 M.OMEGA. glass microelectrodes filled with 3M KCl For two-microelectrode voltage-clamp recordings, the voltage-measuring pipette had resistances of 1.5 to 2.0 M.OMEGA., while the current-injection pipette had resistances of 0.7-0.9 M.OMEGA.; both pipettes were filled with 3M KCl. All voltage-clamp recordings were conducted in bath solutions containing 1 mM MgCl2, 0.3 mM CaCl2, and 5 mM HEPES. For experiments conducted in 50 mM K^+, the solution contained 50 mM KCl and 50 mM NaCl. For lower potassium concentrations, this solution was mixed with an identical solution in which choline was substituted for potassium. Pairs of solutions at pH 5.4 and 8.4, containing 50 mM KCl and either 50 mM potassium-acetate or 50 mM potassium-hydrogen phthalate (biphthalate; Sigma, St. Louis, Mo.) were mixed to vary pH.
Two-microelectrode, voltage-clamp recordings were conducted using the GeneClamp 500 (Axon Instruments, La Jolla, Calif.) interfaced with a 486 Computer running the PCLAMP 6.0 (Axon Instruments, La Jolla, Calif.) suite of programs. Currents were filtered at 2 kHz and sampled every 100 μs. Current amplitude was measured during the last 4 ms of a 400 ms test pulse. Data were analyzed and plotted using PCLAMP 6.0 and SIGMA PLOT 5.0 (Jandel Scientific, San Rafael, Calif.). Statistical significance was determined by the Student's T-test.

Consider `[Cs+]` [Cs^+], for which the “inhibition of KIRK 2 current” value at KIRK 2 channel was “reversible and voltage-dependent”. In addition, on KIRK 2 channel (apparent only at the most negative potentials tested, n=6, data not shown), the “effectiveness of block of KIRK 2 compared with Ba^2+” value is “far less effective than block by Ba^2+”.
For “KIRK-3 (human kidney inward rectifier K channel 3)”, in the assay with KIRK 1 (ROMK channel), the whole-cell current at a holding potential of -160 mV in Xenopus oocytes, two-microelectrode voltage clamp was determined as 54%.
Consider `[Ba+2]` [Ba^2+], for which the “fraction of the transmembrane electric field sensed by the binding site (Woodhull equation fit of Ki versus membrane potential)” value on KIRK 2 channel (Ki values at holding potentials -120, -80 and -40 mV) stood at 46%. At KIRK 2 channel, the “inhibition of KIRK 2 current” value was “reversible, concentrationdependent inhibition”. In addition, on KIRK 2 channel (three holding potentials (-120, -80, -40 mV), n=8), the “Hill coefficient of logistic fit of concentration-dependence of KIRK 2 inhibition” value is recorded as 2.
